Reference: PMC7321065, “Discovery of New Schiff Bases Tethered Pyrazole Moiety: Design, Synthesis, Biological Evaluation, and Molecular Docking Study as Dual Targeting DHFR/DNA Gyrase Inhibitors with Immunomodulatory Activity” (Molecules, 2020)
Values after ≈ are worked out from the molar mass of the structure shown.

Legend:
S. aureus ATCC 33591 [1] = assay: MIC/MBC against MDRB, paper disk diffusion; type: cell-based; settings: Staphylococcus aureus, ATCC33591
From the text: (§1) The inhibition zone (IZ, mm±standard deviation) of pyrazole Schiff bases ( 6b, 7b, 7c, 8a, 8d and 9b) was
(§2) measurement according to the agar plate diffusion method against a panel of multidrug-resistant bacteria
(MDRB). […]

E. coli ATCC BAA-196 [2] = assay: MIC/MBC against MDRB, paper disk diffusion; type: cell-based; settings: Escherichia coli, ATCCBAA196
From the text: as §1, §2
(MDRB). […]

[3] = tested on: S. aureus ATCC 43300 (MRSA); assay: MIC/MBC against MDRB, paper disk diffusion; type: cell-based; settings: Staphylococcus aureus
From the text: as §1, §2
(MDRB). […]

[4] = tested on: P. aeruginosa ATCC BAA-2111; assay: MIC/MBC against MDRB, paper disk diffusion; type: cell-based; settings: Pseudomonas aeruginosa, ATCCBAA2111
From the text: as §1, §2
(MDRB). […]

S. aureus ATCC 33591 [5] = assay: Inhibition zone against MDRB, agar plate diffusion; type: cell-based
Fusarium oxysporum [6] = assay: MIC/MFC, paper disk diffusion; type: cell-based; settings: Fusarium oxysporum
Experimental: (§3) Antimicrobial activities of the newly formed Schiff bases (6a–d, 7a–d, 8a–d, and 9a–d) and reference drugs were evaluated against three Gram-positive, three Gram-negative, and two fungi strain at Al-Azhar University, Cairo, Egypt. The inhibition zones (IZ, in mm ± standard deviation) and the minimal inhibitory concentration (MIC) (μg/mL) were determined by the conventional paper disk diffusion method.
(§4) In Vitro Antimicrobial Activities […]
(§5) DMSO was used for dissolving […]
(§6) the tested microorganisms.
(§7) The minimum inhibitory concentration (MIC), the minimum bactericidal concentration (MBC, µg/ml) and […]
(§8) and 9b) were determined by the conventional technique termed paper disk diffusion, by applying paper […]
(§9) Bacteria were grown on nutrient agar medium, while fungi and yeast were grown on Sabouraud agar medium. The purified streptomycin was dissolved in […]
(§10) inoculated with test organism. Growth inhibition was examined after 24 hr. from incubation at 37 °C for bacteria and after 72 hr. incubation at 27 °C for fungi and yeast. Each test was repeated three times. MIC was expressed as the lowest concentration inhibiting test organism’s growth. […]

Candida albicans [7] = assay: MIC/MFC, paper disk diffusion; type: cell-based; settings: Candida albicans
Experimental: as §3, §4, §5, §6, §7, §8, §9, §10

E. coli ATCC BAA-196 [8] = assay: Inhibition zone against MDRB, agar plate diffusion; type: cell-based
Salmonella typhi [9] = assay: MIC/MBC, paper disk diffusion; type: cell-based
Experimental: as §3, §4, §5, §6, §7, §8, §9, §10

Staphylococcus aureus [10] = assay: MIC/MBC, paper disk diffusion; type: cell-based
Experimental: as §3, §4, §5, §6, §7, §8, §9, §10

Enterococcus faecalis [11] = assay: MIC/MBC, paper disk diffusion; type: cell-based
Experimental: as §3, §4, §5, §6, §7, §8, §9, §10

Escherichia coli [12] = assay: MIC/MBC, paper disk diffusion; type: cell-based; settings: Escherichia coli
Experimental: as §3, §4, §5, §6, §7, §8, §9, §10

Bacillus subtilis [13] = assay: MIC/MBC, paper disk diffusion; type: cell-based
Experimental: as §3, §4, §5, §6, §7, §8, §9, §10

Pseudomonas aeruginosa [14] = assay: MIC/MBC, paper disk diffusion; type: cell-based; settings: Pseudomonas aeruginosa
Experimental: as §3, §4, §5, §6, §7, §8, §9, §10

[15] = tested on: P. aeruginosa ATCC BAA-2111; assay: Inhibition zone against MDRB, agar plate diffusion; type: cell-based
Enterococcus faecalis [16] = assay: Inhibition zone, agar plate diffusion; type: cell-based; settings: read-out: Inhibition zone (IZ)
Experimental: as §3
(§11) In Vitro Antimicrobial Activities
(§12) The antimicrobial activities inhibition zone (IZ, mm±standard deviation) of pyrazole Schiff bases ( 6a-d , 7a-d, 8a-d and 9a-d ) was measurement according to the agar plate diffusion method. Briefly, 100 µl of the […]
(§13) […] of each sample (at 0.5 mg/mL) was added to each well (10 mm diameter holes cut in the agar gel). The plates were incubated for 24 h at 37 °C (for bacteria and yeast) and for 72 h at 27 °C (for filamentous fungi), each test was repeated three times. After incubation, the microorganism's growth was observed. […]
(§14) drugs while Amphotericin B was used as standard antifungal drug. The resulting inhibition zone diameters were measured in millimeters and used as criterion for the antimicrobial activity. Solvent controls (DMSO) were included in every experiment as negative controls. DMSO was used for dissolving […]
(§15) the tested microorganisms. […]

Escherichia coli [17] = assay: Inhibition zone, agar plate diffusion; type: cell-based; settings: read-out: Inhibition zone (IZ)
Experimental: as §3, §11, §12, §13, §14, §15

Bacillus subtilis [18] = assay: Inhibition zone, agar plate diffusion; type: cell-based; settings: read-out: Inhibition zone (IZ)
Experimental: as §3, §11, §12, §13, §14, §15

Pseudomonas aeruginosa [19] = assay: Inhibition zone, agar plate diffusion; type: cell-based; settings: read-out: Inhibition zone (IZ)
Experimental: as §3, §11, §12, §13, §14, §15

[20] = tested on: mammary gland breast cancer cell line (MCF-7); assay: Antiproliferative activity, MTT assay; type: cell-based, human; settings: Homo sapiens, MCF7, 48 h, read-out: IC50 MCF-7
Experimental: (§16) 3-[4, 5-Dimethyl-2-thiazolyl)-2, 5-diphenyl-2 H-tetrazolium bromide (MTT) protocol is based on the cleavage of the tetrazolium salt by mitochondrial dehydrogenases in viable cells. Cells were dispensed in a 96 well sterile microplate (5 x 10^4 cells/well), and incubated at 37 °C with series of different concentrations, in DMSO, of each tested compound or Doxorubicin ® (positive control) for 48 h in a serum free medium prior to the MTT assay. After incubation, media were carefully removed, 40 µL of MTT (2.5 mg/mL) were added to each well and then incubated for an additional 4 h. The purple formazan dye crystals were solubilized by the addition of 200 µL of DMSO. The absorbance was measured at 590 nm using a SpectraMax® Paradigm® Multi-Mode microplate reader. The relative cell viability was expressed as the mean percentage of viable cells compared to the untreated control cells.
(§17) All experiments were conducted in triplicate and repeated in three different days. All the values were represented as mean ± SD. IC 50s were determined by probit analysis using SPSS software program (SPSS

[21] = tested on: hepatocellular carcinoma cell line (HepG2); assay: Antiproliferative activity, MTT assay; type: cell-based, human
Experimental: as §16, §17

Salmonella typhi [22] = assay: Inhibition zone, agar plate diffusion; type: cell-based; settings: Salmonella enterica, St, mm ± standard deviation, sample at 0.5 mg/mL, read-out: Inhibition zone (IZ)
Experimental: as §3, §11, §12, §13, §14, §15
(§18) Bacteria were grown on nutrient agar medium, while fungi and yeast were grown on Sabouraud agar medium. […]

Fusarium oxysporum [23] = assay: Inhibition zone, agar plate diffusion; type: cell-based; settings: read-out: Inhibition zone (IZ)
Experimental: as §3, §11, §12, §13, §14, §15, §18

Staphylococcus aureus [24] = assay: Inhibition zone, agar plate diffusion; type: cell-based; settings: read-out: Inhibition zone (IZ)
Experimental: as §3, §11, §12, §13, §14, §15, §18

Candida albicans [25] = assay: Inhibition zone, agar plate diffusion; type: cell-based; settings: read-out: Inhibition zone (IZ)
Experimental: as §3, §11, §12, §13, §14, §15, §18

[26] = tested on: S. aureus ATCC 43300 (MRSA); assay: Inhibition zone against MDRB, agar plate diffusion; type: cell-based

SMILES: COc1ccc(Nc2n[nH]c(N=Cc3c(C)nn(-c4ccccc4)c3Cl)c2C(=O)Nc2ccccc2)cc1 [7b, 5-((5-Chloro-3-methyl-1-phenyl-1H-pyrazol-4-yl)methyleneamino)-3-(p-methoxyphenylamino)-N-phenyl-1H-pyrazole-4-carboxamide]
- MBC (S. aureus ATCC 33591 [1]): 16 µg/mL (≈ 30.4 µM)
- MIC (S. aureus ATCC 33591 [1]): 8.88 µg/mL (≈ 16.9 µM)
- MBC (E. coli ATCC BAA-196 [2]): 18.5 µg/mL (≈ 35.2 µM)
- MIC (E. coli ATCC BAA-196 [2]): 9.25 µg/mL (≈ 17.6 µM)
- MBC [3]: 15.6 µg/mL (≈ 29.7 µM)
- MIC [3]: 7.81 µg/mL (≈ 14.8 µM)
- MBC [4]: 15.6 µg/mL (≈ 29.7 µM)
- MIC [4]: 7.81 µg/mL (≈ 14.8 µM)
- Mean Diameter of Inhibition Zone against MDRB (S. aureus ATCC 33591 [5]): 15 ± 0.41 mm
- MFC (Fusarium oxysporum [6]): 46.9 µg/mL (≈ 89.1 µM)
- MIC (Fusarium oxysporum [6]): 31.2 µg/mL (≈ 59.4 µM)
- MFC (Candida albicans [7]): 28.1 µg/mL (≈ 53.4 µM)
- MIC (Candida albicans [7]): 15.6 µg/mL (≈ 29.7 µM)
- Mean Diameter of Inhibition Zone against MDRB (E. coli ATCC BAA-196 [8]): 20 ± 0.44 mm
- Fold more potent than Tetracycline (MIC) (Salmonella typhi [9]): 8 fold
- Fold more potent than the standard drug (MBC) (Salmonella typhi [9]; S. typhi): ~6.6 fold
- MIC (Salmonella typhi [9]; Salmonella enterica, S. typhi): 3.9 µg/mL (≈ 7.41 µM)
- MBC (Salmonella typhi [9]; Salmonella enterica, S. typhi, read-out: MBC): 6.63 µg/mL (≈ 12.6 µM)
- Fold more potent than Tetracycline (MIC) (Staphylococcus aureus [10]; S. aureus): 32 fold
- MIC (Staphylococcus aureus [10]; Staphylococcus aureus): 1.95 µg/mL (≈ 3.71 µM)
- MBC (Staphylococcus aureus [10]; Staphylococcus aureus, S. aureus): 3.7 µg/mL (≈ 7.03 µM)
- MIC (Enterococcus faecalis [11]): 3.9 µg/mL (≈ 7.41 µM)
- MBC (Enterococcus faecalis [11]; E. faecalis): 6.63 µg/mL (≈ 12.6 µM)
- MIC (Escherichia coli [12]): 7.81 µg/mL (≈ 14.8 µM)
- MBC (Escherichia coli [12]; E. coli): 12.5 µg/mL (≈ 23.7 µM)
- Fold more potent than Tetracycline (MIC) (Bacillus subtilis [13]; B. subtilis): 5 fold
- MIC (Bacillus subtilis [13]; Bacillus subtilis): 5.57 µg/mL (≈ 10.6 µM)
- MBC (Bacillus subtilis [13]; Bacillus subtilis, B. subtilis): 10.6 µg/mL (≈ 20.1 µM)
- MIC (Pseudomonas aeruginosa [14]): 31.2 µg/mL (≈ 59.4 µM)
- MBC (Pseudomonas aeruginosa [14]; P. aeruginosa): 59.4 µg/mL (≈ 113 µM)
- Mean Diameter of Inhibition Zone against MDRB [15]: 21 ± 0.33 mm
- zone of inhibition at 500 µg/mL (Enterococcus faecalis [16]): 25 ± 0.3 mm
- zone of inhibition at 500 µg/mL (Escherichia coli [17]): 21 ± 0.14 mm
- zone of inhibition at 500 µg/mL (Bacillus subtilis [18]): 28 ± 0.16 mm
- zone of inhibition at 500 µg/mL (Pseudomonas aeruginosa [19]): 24 ± 0.78 mm
- IC50 [20]: 4.81 ± 0.25 µM
- Fold against doxorubicin (IC50) ([21]; HepG-2): 0.54 fold
- IC50 ([21]; Homo sapiens, HepG2, 48 h, read-out: IC50 HepG-2): 7.18 ± 0.49 µM
- zone of inhibition at 500 µg/mL (Salmonella typhi [22]): 22 ± 0.12 mm
- zone of inhibition at 500 µg/mL (Fusarium oxysporum [23]): 17 ± 0.45 mm
- zone of inhibition at 500 µg/mL (Staphylococcus aureus [24]): 23 ± 0.55 mm
- zone of inhibition at 500 µg/mL (Candida albicans [25]): 21 ± 0.2 mm
- Mean Diameter of Inhibition Zone against MDRB [26]: 18 ± 0.11 mm
